The values that follow come from BindingDB's records for doi:10.1016/j.bmcl.2015.12.003 (University of Auckland, 2016).

As usually defined, the IC50 is the concentration at which inhibition is half-maximal.

The nature of the assay: Inhibition of recombinant perforin (unknown origin) mediated lysis of human Jurkat cells pre-incubated for 30 mins with perforin followed by incubation with Jurkat cells at 37 degC for 4 hrs assessed as 51Cr release by gamma counting analysis.

As for `O=C1OCc2cc(-c3ccc(-c4ccccc4)s3)ccc21`, the IC50 was over 20 µM. In the case of `Cc1ccccc1-c1ccc(-c2ccc3c(c2)COC3=O)s1` it was over 20 µM; in that of `Cc1cccc(-c2ccc(-c3ccc4c(c3)COC4=O)s2)c1`, over 20 µM. In the case of `Cc1ccc(-c2ccc(-c3ccc4c(c3)COC4=O)s2)cc1` it was over 20 µM; in that of `O=C1OCc2cc(-c3ccc(-c4ccccc4Cl)s3)ccc21`, over 20 µM; in that of `O=C1OCc2cc(-c3ccc(-c4cccc(Cl)c4)s3)ccc21`, over 20 µM. In the case of `O=C1OCc2cc(-c3ccc(-c4ccc(Cl)cc4)s3)ccc21` it was over 20 µM. For the compound `COc1ccccc1-c1ccc(-c2ccc3c(c2)COC3=O)s1`, the IC50 is over 20 µM. In the case of `COc1cccc(-c2ccc(-c3ccc4c(c3)COC4=O)s2)c1` it was over 20 µM; in that of `COc1ccc(-c2ccc(-c3ccc4c(c3)COC4=O)s2)cc1`, 9.36 µM; in that of `Nc1cccc(-c2ccc(-c3ccc4c(c3)COC4=O)s2)c1`, 14 µM. With `Nc1ccc(-c2ccc(-c3ccc4c(c3)COC4=O)s2)cc1` the figure was 11.8 µM; with `O=C1OCc2cc(-c3ccc(-c4cccc(O)c4)s3)ccc21`, 5.89 µM. With `O=C1OCc2cc(-c3ccc(-c4ccc(O)cc4)s3)ccc21` the figure was over 20 µM; with `N#Cc1cccc(-c2ccc(-c3ccc4c(c3)COC4=O)s2)c1`, 20 µM; with `N#Cc1ccc(-c2ccc(-c3ccc4c(c3)COC4=O)s2)cc1`, 6.87 µM. As to `NC(=O)c1cccc(-c2ccc(-c3ccc4c(c3)COC4=O)s2)c1`, the IC50 turned out to be 2.97 µM. Take `NC(=O)c1ccc(-c2ccc(-c3ccc4c(c3)COC4=O)s2)cc1`: the IC50 is 0.18 µM. With `NC(=O)c1ccc(-c2ccc(-c3ccc4c(c3)CNC4=O)s2)cc1` the figure was 6.04 µM. Regarding `CN1Cc2cc(-c3ccc(-c4ccc(C(N)=O)cc4)s3)ccc2C1=O`, the IC50 is over 20 µM. In the case of `CNC(=O)c1ccc(-c2ccc(-c3ccc4c(c3)COC4=O)s2)cc1` it was 10.7 µM; in that of `CN(C)C(=O)c1ccc(-c2ccc(-c3ccc4c(c3)COC4=O)s2)cc1`, over 20 µM; in that of `CN1CCN(C(=O)c2ccc(-c3ccc(-c4ccc5c(c4)COC5=O)s3)cc2)CC1`, over 20 µM. Turning to `CN(C)CCCNC(=O)c1ccc(-c2ccc(-c3ccc4c(c3)COC4=O)s2)cc1`, the IC50 is over 20 µM. With `CCOC(=O)c1ccc(-c2ccc(-c3ccc4c(c3)COC4=O)s2)cc1` the figure was 11 µM.

For the compound `CCOC(=O)c1ccc(-c2ccc(-c3ccc4c(c3)COC4=O)s2)cc1O`, the IC50 was over 20 µM. With `Nc1cc(-c2ccc(-c3ccc4c(c3)COC4=O)s2)ccc1C(=O)O` the figure was 5.84 µM. In the case of `NC(=O)c1ccc(-c2ccc(-c3ccc4c(c3)COC4=O)s2)cc1O` it was 0.67 µM; in that of `O=C(NCCN1CCOCC1)c1ccc(-c2ccc(-c3ccc4c(c3)COC4=O)s2)cc1O`, 12.8 µM; in that of `CN(C)CCNC(=O)c1ccc(-c2ccc(-c3ccc4c(c3)COC4=O)s2)cc1O`, over 20 µM. With `O=C(NCCO)c1ccc(-c2ccc(-c3ccc4c(c3)COC4=O)s2)cc1O` the figure was 3.31 µM; with `CC(O)CNC(=O)c1ccc(-c2ccc(-c3ccc4c(c3)COC4=O)s2)cc1O` (stereo unspecified), over 20 µM.

As for `NC(=O)CNC(=O)c1ccc(-c2ccc(-c3ccc4c(c3)COC4=O)s2)cc1O`, the IC50 was found to be 2.65 µM.

Take `NC(=O)CCNC(=O)c1ccc(-c2ccc(-c3ccc4c(c3)COC4=O)s2)cc1O`: the IC50 is 7.12 µM. With `NC(=O)c1ccc(-c2ccc(-c3ccc4c(c3)COC4=O)s2)cc1N` the figure was 1.2 µM; with `Nc1cc(-c2ccc(-c3ccc4c(c3)COC4=O)s2)ccc1C(=O)NCCN1CCOCC1`, 14.7 µM; with `CN(C)CCNC(=O)c1ccc(-c2ccc(-c3ccc4c(c3)COC4=O)s2)cc1N`, over 20 µM. As to `CSc1ccc(-c2ccc(-c3ccc4c(c3)COC4=O)s2)cc1`, the IC50 was over 20 µM. With `O=C1OCc2cc(-c3ccc(-c4ccc(CO)cc4)s3)ccc21`, the IC50 turned out to be 0.9 µM.

Regarding `CS(=O)(=O)c1ccc(-c2ccc(-c3ccc4c(c3)COC4=O)s2)cc1`, the IC50 was over 20 µM. Turning to `NS(=O)(=O)c1cccc(-c2ccc(-c3ccc4c(c3)COC4=O)s2)c1`, the IC50 came to 4.85 µM. As to `CC(C)(C)NS(=O)(=O)c1ccc(-c2ccc(-c3ccc4c(c3)COC4=O)s2)cc1`, the IC50 worked out at 6.09 µM. With `CS(=O)(=O)Nc1ccc(-c2ccc(-c3ccc4c(c3)COC4=O)s2)cc1`, the IC50 amounted to 1.09 µM. In the case of `NC(=O)c1ccc(-c2ccc(-c3ccc4c(c3)COC4=O)s2)cn1` it was 0.92 µM.

As to `O=C1OCc2cc(-c3ccc(-c4ccncc4)s3)ccc21`, the 50% inhibitory concentration (IC50) turned out to be 4.53 µM. In the case of `O=C1OCc2cc(-c3ccc(-c4ccc5c(c4)COC5=O)s3)ccc21` it was 6.24 µM.
